Reference: ChEMBL document CHEMBL1156732, “Identification of SVM-based classification model, synthesis and evaluation of prenylated flavonoids as vasorelaxant agents” (Bioorg Med Chem, 2008)

Legend:
Aorta [1] = assay: Vasorelaxant activity against phenylephrine-induced contraction in Sprague-Dawley rat aorta relative to phenylephrine; assay type: functional
Aorta [2] = assay: Vasorelaxant activity against phenylephrine-induced contraction in Sprague-Dawley rat aorta; assay type: functional, tissue-based

Structure (SMILES)	EC50 (Aorta [2])	Emax (Aorta [1])
CC(C)=CCc1c(O)cc(O)c2c(=O)cc(-c3cccc(O)c3)oc12	–	64.6%
COc1cc(/C=C/C(=O)c2c(O)cc(O)c(CC=C(C)C)c2O)cc(OC)c1OC	–	78.5%
CC(C)=CCc1c(O)cc(O)c(C(=O)/C=C/c2ccc(Cl)cc2)c1O	679 µM	64.4%
CC(C)=CCc1c(O)cc(O)c2c(=O)cc(-c3cccc(Br)c3)oc12	95.9 µM	82.8%
CC(C)=CCc1c(O)cc(O)c(C(=O)/C=C/c2ccc3c(c2)OCO3)c1O	4.21 µM	90%

Continued, in another order:

EC50 (Aorta [2])	Structure (SMILES)	Emax (Aorta [1])
49.3 µM	COc1cc(-c2cc(=O)c3c(O)cc(O)c(CC=C(C)C)c3o2)ccc1O	70.6%
1.32 µM	CC(C)=CCc1c(O)cc(O)c2c1OC(c1ccc3c(c1)OCO3)CC2=O (racemic)	77.3%
5.79 µM	CC(C)=CCc1c(O)cc(O)c2c1OC(c1ccccc1)CC2=O (racemic)	122%
1.56 µM	CC(C)=CCc1c(O)cc(O)c2c1OC(c1cccc(Br)c1)CC2=O (racemic)	78.2%
10.1 µM	COc1cc(C2CC(=O)c3c(O)cc(O)c(CC=C(C)C)c3O2)ccc1O (racemic)	95.8%
64.3 µM	COc1cc(-c2cc(=O)c3c(O)cc(O)c(CC=C(C)C)c3o2)cc(OC)c1OC	90.1%
